Measurements: ChEMBL document CHEMBL5214953, “Structure-activity-relationship study of semi-synthetically modified fusicoccins on their stabilization effect for 14-3-3-phospholigand interactions” (Bioorg Med Chem, 2022)
Active and inactive are the calls of the source. The rule behind the calls is not given here.

Experiments:
[1] = Stabilization of mode-3 phosphopeptide FAM-KRSHpSV binding to recombinant 14-3-3 zeta (unknown origin) measured by fluorescence polarization assay; set-up: species or system Homo sapiens
[2] = Stabilization of mode-1 phosphopeptide FAM-KRSHpSVP binding to recombinant 14-3-3 zeta (unknown origin) measured by fluorescence polarization assay; set-up: species or system Homo sapiens
[3] = system: HL-60; experiment: Antiproliferative activity against human HL-60 cells at 5 to 80 uM measured after 48 hrs by WST assay; assay type: functional, cell-based; conditions: dose 5-80 µM
[4] = system: HEK293; experiment: Antiproliferative activity against human HEK293 cells at 5 to 80 uM measured after 48 hrs by WST assay; assay type: functional, cell-based; conditions: dose 5-80 µM
[5] = system: HL-60; experiment: Antiproliferative activity against human HL-60 cells measured after 48 hrs by WST assay; assay type: functional, cell-based; conditions: HL-60, 48 h

Compound | Kd [1] [µM] | Kd [2] [µM] | IC50 [5] [µM] | Activity [3] | Activity [4]
CCCNC[C@H]1O[C@H](O[C@@H]2C3=C(C(C)C)CC[C@]3(C)/C=C3/[C@@H](COC)CC[C@H]3[C@@H](C)[C@H]2O)[C@H](O)[C@@H](O)[C@@H]1O | 0.12 | 0.16 |  | Active | 
COC[C@H]1CC[C@@H]2/C1=C\[C@@]1(C)CCC(C(C)C)=C1[C@@H](O[C@H]1O[C@H](CN)[C@@H](O)[C@H](O)[C@H]1O)[C@H](O)[C@@H]2C | 0.07 | 0.06 |  | Active | 
CC(C)C1=C2[C@@H](O[C@H]3O[C@@H]4COC(C)(C)O[C@H]4[C@H](O)[C@H]3O)[C@H](O)[C@H](C)[C@@H]3CC[C@H](COC(F)(F)F)/C3=C/[C@@]2(C)CC1 |  | 0.65 |  |  | 
COC[C@H]1CC[C@@H]2/C1=C\[C@@]1(C)CCC(C(C)C)=C1[C@@H](O[C@H]1O[C@@H]3COC(C)(C)O[C@H]3[C@H](O)[C@H]1O)[C@H](O)[C@@H]2C | 0.096 | 0.23 |  |  | Active
CCOC[C@H]1CC[C@@H]2/C1=C\[C@@]1(C)CCC(C(C)C)=C1[C@@H](O[C@H]1O[C@@H]3COC(C)(C)O[C@H]3[C@H](O)[C@H]1O)[C@H](O)[C@@H]2C |  | 0.75 |  |  | 
COC[C@H]1CC[C@@H]2/C1=C\[C@@]1(C)CCC(C(C)C)=C1[C@@H](O[C@H]1O[C@H](CNCc3ccccc3)[C@@H](O)[C@H](O)[C@H]1O)[C@H](O)[C@@H]2C | 0.25 | 0.31 | < 5 |  | 
COC[C@H]1CC[C@@H]2/C1=C\[C@@]1(C)CCC(C(C)C)=C1[C@@H](O[C@H]1O[C@@H]3CO[C@@H](OCCCN)[C@@H]3[C@H]1O)[C@H](O)[C@@H]2C |  |  | 10 |  | 
COC[C@H]1CC[C@@H]2/C1=C\[C@@]1(C)CCC([C@H](C)CNC(C)=O)=C1[C@@H](O[C@H]1O[C@@H]3COC(C)(C)O[C@H]3[C@H](O)[C@H]1O)[C@H](O)[C@@H]2C | 0.044 | 0.11 |  |  | Active
C=CC(C)(C)OC[C@H]1O[C@H](O[C@@H]2C3=C(C(C)C)C[C@H](O)[C@]3(C)/C=C3/[C@@H](COC)CC[C@H]3[C@@H](C)[C@H]2O)[C@H](O)[C@@H](O)[C@@H]1O | 0.077 | 0.43 |  |  | 
CC(C)OC[C@H]1CC[C@@H]2/C1=C\[C@@]1(C)CCC(C(C)C)=C1[C@@H](O[C@H]1O[C@@H]3COC(C)(C)O[C@H]3[C@H](O)[C@H]1O)[C@H](O)[C@@H]2C |  | 0.68 |  |  | 
COC[C@H]1CC[C@@H]2/C1=C\[C@@]1(C)CCC([C@H](C)CNC(=O)C(F)(F)F)=C1[C@@H](O[C@H]1O[C@@H]3COC(C)(C)O[C@H]3[C@H](O)[C@H]1O)[C@H](O)[C@@H]2C | 0.042 | 0.08 |  |  | Active
COC[C@H]1CC[C@@H]2/C1=C\[C@@]1(C)CCC([C@H](C)CNC(=O)C3CCCCC3)=C1[C@@H](O[C@H]1O[C@@H]3COC(C)(C)O[C@H]3[C@H](O)[C@H]1O)[C@H](O)[C@@H]2C | 0.032 | 0.13 |  |  | Active
COC[C@H]1CC[C@@H]2/C1=C\[C@@]1(C)CCC([C@H](C)CNC(=O)C3CC3)=C1[C@@H](O[C@H]1O[C@@H]3COC(C)(C)O[C@H]3[C@H](O)[C@H]1O)[C@H](O)[C@@H]2C | 0.041 | 0.11 |  |  | Active
C=CC(C)(C)OC[C@H]1O[C@H](O[C@@H]2C3=C([C@H](C)CNC(C)=O)C[C@H](O)[C@]3(C)/C=C3/[C@@H](COC)CC[C@H]3[C@@H](C)[C@H]2O)[C@H](O)[C@@H](O)[C@@H]1O | 0.038 | 0.17 |  |  | 

Second part, led by results:

Kd [1] [µM] | Kd [2] [µM] | IC50 [5] [µM] | Compound | Activity [3] | Activity [4]
0.48 | 0.54 |  | C=CC(C)(C)OC[C@H]1O[C@H](O[C@@H]2C3=C(C(C)C)C[C@H](OCc4ccccc4C(=O)O)[C@]3(C)/C=C3/[C@@H](COC)CC[C@H]3[C@@H](C)[C@H]2O)[C@H](O)[C@@H](O)[C@@H]1O |  | 
0.6 | 0.68 |  | C=CC(C)(C)OC[C@H]1O[C@H](O[C@@H]2C3=C(C(C)C)C[C@H](OCc4ccc(C(=O)OC)cc4)[C@]3(C)/C=C3/[C@@H](COC)CC[C@H]3[C@@H](C)[C@H]2O)[C@H](O)[C@@H](O)[C@@H]1O |  | 
0.53 | 0.66 |  | C=CC(C)(C)OC[C@H]1O[C@H](O[C@@H]2C3=C(C(C)C)C[C@H](OCc4ccccc4C(=O)OC)[C@]3(C)/C=C3/[C@@H](COC)CC[C@H]3[C@@H](C)[C@H]2O)[C@H](O)[C@@H](O)[C@@H]1O |  | 
0.48 | 0.68 |  | C=CC(C)(C)OC[C@H]1O[C@H](O[C@@H]2C3=C(C(C)C)C[C@H](OCc4ccccc4N=[N+]=[N-])[C@]3(C)/C=C3/[C@@H](COC)CC[C@H]3[C@@H](C)[C@H]2O)[C@H](O)[C@@H](O)[C@@H]1O |  | 
0.32 | 0.62 |  | C=CC(C)(C)OC[C@H]1O[C@H](O[C@@H]2C3=C(C(C)C)C[C@H](OCc4ccc(N=[N+]=[N-])cc4)[C@]3(C)/C=C3/[C@@H](COC)CC[C@H]3[C@@H](C)[C@H]2O)[C@H](O)[C@@H](O)[C@@H]1O |  | 
0.38 | 0.71 |  | C=CC(C)(C)OC[C@H]1O[C@H](O[C@@H]2C3=C(C(C)C)C[C@H](OCc4ccc(C#N)cc4)[C@]3(C)/C=C3/[C@@H](COC)CC[C@H]3[C@@H](C)[C@H]2O)[C@H](O)[C@@H](O)[C@@H]1O |  | 
0.39 | 0.47 |  | C=CC(C)(C)OC[C@H]1O[C@H](O[C@@H]2C3=C(C(C)C)C[C@H](OCc4ccc(C(=O)O)cc4)[C@]3(C)/C=C3/[C@@H](COC)CC[C@H]3[C@@H](C)[C@H]2O)[C@H](O)[C@@H](O)[C@@H]1O |  | 
